According to patent US11702422B2, “Imidazopyridazines as modulators of IL-17” (Janssen Pharmaceutica NV, priority 2020, dated 2023):

How the values were obtained:
[1] = biological target: IL-17A(FLAG-Tagged): IL-17RA(His-Tagged) (Homo sapiens, UniProt Q16552, K93Q); experiment: IL-17A(FLAG-Tagged): IL-17RA(His-Tagged) Binding Disruption Eu-HTRF Assay; details: IL-17A/IL-17RA binding disruption, simple average if tested more than once
In short: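 IC50 comes from a one-site competition fit of the HTRF 665/620 nm ratio. Compound dilutions (2-fold, 22 points) were held 1 h rt with FLAG-tagged IL-17A dimer, then His-tagged IL-17RA plus Eu-cryptate anti-FLAG and D2 anti-His antibodies were added for 2 h rt.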

[2] = system: IL-17A-induced G-CSF production in human normal keratinocyte (NHK); experiment: NHK Assay: IL-17A-induced G-CSF production in human normal keratinocytes; assay type: cell-based; details: Homo sapiens, Keratinocyte, 24 h, adult normal human keratinocytes, IL-17A 5 ng/mL, simple average if tested more than once
In short: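 IL-17A (5 ng/mL final) was pre-incubated 1 h at rt with titrated compound and then added to adult normal human keratinocytes (5% FBS, 0.2% DMSO) for 24 h at 37° C. Supernatant G-CSF was measured by HTRF against a standard curve to derive IC50. Viability was checked by CellTiter-Glo.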

Chain of UniProt Q16552 (Q16552 with tags, fused parts or gaps K93Q): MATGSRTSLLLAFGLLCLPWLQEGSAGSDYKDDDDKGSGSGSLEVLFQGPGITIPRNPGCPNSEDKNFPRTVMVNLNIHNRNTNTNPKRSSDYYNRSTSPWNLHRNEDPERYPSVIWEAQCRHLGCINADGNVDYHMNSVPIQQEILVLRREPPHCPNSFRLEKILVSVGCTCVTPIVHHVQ

Compound	IC50 [1] [nM]	IC50 [2] [nM]
CN(C)c1nonc1C(=O)N[C@H](c1cn2ncc([C@H](NC(=O)CC3CC(F)(F)C3)C3CC3)cc2n1)C1CCC(F)(F)CC1 [Example 406, N—((S)-(7-((R)-Cyclopropyl(2-(3,3-difluorocyclobutyl)acetamido)methyl)imidazo[1,2-b]pyridazin-2-yl)(4,4-difluorocyclohexyl)methyl)-4-(dimethylamino)-1,2,5-oxadiazole-3-carboxamide]	77	290
O=C(CC1CC(F)(F)C1)N[C@@H](c1cnn2cc([C@@H](NC(=O)c3nonc3CN3CC(F)C3)C3CCC(F)(F)CC3)nc2c1)C1CC1 [Example 407, N—((S)-(7-((R)-Cyclopropyl(2-(3,3-difluorocyclobutyl)acetamido)methyl)imidazo[1,2-b]pyridazin-2-yl)(4,4-difluorocyclohexyl)methyl)-4-((3-fluoroazetidin-1-yl)methyl)-1,2,5-oxadiazole-3-carboxamide]	240	97
O=C(CC1CC(F)(F)C1)N[C@@H](c1cnn2cc([C@@H](NC(=O)c3nonc3N3CCOCC3)C3CCC(F)(F)CC3)nc2c1)C1CC1 [Example 408, N—((S)-(7-((R)-Cyclopropyl(2-(3,3-difluorocyclobutyl)acetamido)methyl)imidazo[1,2-b]pyridazin-2-yl)(4,4-difluorocyclohexyl)methyl)-4-morpholino-1,2,5-oxadiazole-3-carboxamide]	54	370
COc1nonc1C(=O)N[C@H](c1cn2ncc([C@H](NC(=O)CC3CC(F)(F)C3)C3CC3)cc2n1)C1CCC(F)(F)CC1 [Example 409, N—((S)-(7-((R)-Cyclopropyl(2-(3,3-difluorocyclobutyl)acetamido)methyl)imidazo[1,2-b]pyridazin-2-yl)(4,4-difluorocyclohexyl)methyl)-4-methoxy-1,2,5-oxadiazole-3-carboxamide]	85	140
CC(C)(O)c1nonc1C(=O)N[C@H](c1cn2ncc([C@H](NC(=O)CC3CC(F)(F)C3)C3CC3)cc2n1)C1CCC(F)(F)CC1 [Example 410, N—((S)-(7-((R)-Cyclopropyl(2-(3,3-difluorocyclobutyl)acetamido)methyl)imidazo[1,2-b]pyridazin-2-yl)(4,4-difluorocyclohexyl)methyl)-4-(2-hydroxypropan-2-yl)-1,2,5-oxadiazole-3-carboxamide]	120	230
O=C(N[C@H](c1cn2ncc([C@H](NC(=O)C(F)(F)CC3CC3)C3CC3)cc2n1)C1CCC(F)(F)CC1)c1nonc1C1CC1 [Example 411, 4-Cyclopropyl-N—((S)-(7-((R)-cyclopropyl(3-cyclopropyl-2,2-difluoropropanamido)methyl)imidazo[1,2-b]pyridazin-2-yl)(4,4-difluorocyclohexyl)methyl)-1,2,5-oxadiazole-3-carboxamide]	78	49
O=C(CC1CC(F)(F)C1)N[C@@H](c1cnn2cc([C@@H](NC(=O)c3nonc3O)C3CCC(F)(F)CC3)nc2c1)C1CC1 [Example 412, N—((S)-(7-((R)-Cyclopropyl(2-(3,3-difluorocyclobutyl)acetamido)methyl)imidazo[1,2-b]pyridazin-2-yl)(4,4-difluorocyclohexyl)methyl)-4-hydroxy-1,2,5-oxadiazole-3-carboxamide]	> 50000	> 20000
O=C(CC1CC(F)(F)C1)N[C@@H](c1cnn2cc([C@@H](NC(=O)c3nonc3C(F)F)C3CCC(F)(F)CC3)nc2c1)C1CC1 [Example 413, N—((S)-(7-((R)-Cyclopropyl(2-(3,3-difluorocyclobutyl)acetamido)methyl)imidazo[1,2-b]pyridazin-2-yl)(4,4-difluorocyclohexyl)methyl)-4-(difluoromethyl)-1,2,5-oxadiazole-3-carboxamide]	61	170
O=C(CCC(F)(F)F)N[C@@H](c1cnn2cc([C@@H](NC(=O)c3cncc(C4CC4)c3)C3CCC(F)(F)CC3)nc2c1)C1CC1 [Example 414, 5-Cyclopropyl-N—((S)-(7-((R)-cyclopropyl(4,4,4-trifluorobutanamido)methyl)imidazo[1,2-b]pyridazin-2-yl)(4,4-difluorocyclohexyl)methyl)nicotinamide]	57	730
CC(C)c1cncc(C(=O)N[C@H](c2cn3ncc([C@H](NC(=O)CCC(F)(F)F)C4CC4)cc3n2)C2CCC(F)(F)CC2)c1 [Example 415, N—((S)-(7-((R)-Cyclopropyl(4,4,4-trifluorobutanamido)methyl)imidazo[1,2-b]pyridazin-2-yl)(4,4-difluorocyclohexyl)methyl)-5-isopropylnicotinamide]	73	500
O=C(CCC(F)(F)F)N[C@@H](c1cnn2cc([C@@H](NC(=O)c3cncc(C4CCC4)c3)C3CCC(F)(F)CC3)nc2c1)C1CC1 [Example 416, 5-Cyclobutyl-N—((S)-(7-((R)-cyclopropyl(4,4,4-trifluorobutanamido)methyl)imidazo[1,2-b]pyridazin-2-yl)(4,4-difluorocyclohexyl)methyl)nicotinamide]	62	550
O=C(CCC(F)(F)F)N[C@@H](c1cnn2cc([C@@H](NC(=O)c3cncc(OC(F)F)c3)C3CCC(F)(F)CC3)nc2c1)C1CC1 [Example 417, N—((S)-(7-((R)-Cyclopropyl(4,4,4-trifluorobutanamido)methyl)imidazo[1,2-b]pyridazin-2-yl)(4,4-difluorocyclohexyl)methyl)-5-(difluoromethoxy)nicotinamide]	68	410
Cc1cc(C(=O)N[C@H](c2cn3ncc([C@H](NC(=O)CCC(F)(F)F)C4CC4)cc3n2)C2CCC(F)(F)CC2)cnn1 [Example 418, N—((S)-(7-((R)-Cyclopropyl(4,4,4-trifluorobutanamido)methyl)imidazo[1,2-b]pyridazin-2-yl)(4,4-difluorocyclohexyl)methyl)-6-methylpyridazine-4-carboxamide]	4600	> 20000
O=C(CCC(F)(F)F)N[C@@H](c1cnn2cc([C@@H](NC(=O)c3ncccc3OCC(F)(F)F)C3CCC(F)(F)CC3)nc2c1)C1CC1 [Example 419, N—((S)-(7-((R)-Cyclopropyl(4,4,4-trifluorobutanamido)methyl)imidazo[1,2-b]pyridazin-2-yl)(4,4-difluorocyclohexyl)methyl)-3-(2,2,2-trifluoroethoxy)picolinamide]	1300	> 20000
N#Cc1cncc(C(=O)N[C@H](c2cn3ncc([C@H](NC(=O)CCC(F)(F)F)C4CC4)cc3n2)C2CCC(F)(F)CC2)c1 [Example 450, 5-Cyano-N—((S)-(7-((R)-cyclopropyl(4,4,4-trifluorobutanamido)methyl)imidazo[1,2-b]pyridazin-2-yl)(4,4-difluorocyclohexyl)methyl)nicotinamide]	810	1700
O=C(CCC(F)(F)F)N[C@@H](c1cnn2cc([C@@H](NC(=O)c3cncc(F)c3)C3CCC(F)(F)CC3)nc2c1)C1CC1 [Example 451, N—((S)-(7-((R)-Cyclopropyl(4,4,4-trifluorobutanamido)methyl)imidazo[1,2-b]pyridazin-2-yl)(4,4-difluorocyclohexyl)methyl)-5-fluoronicotinamide]	120	830
